Source: patent EP0333356A2, “Hirudin peptides” (BIOGEN, INC., priority 1988, dated 1989)

Tests used:
bovine plasma thrombin = biological target: T1, bovine plasma thrombin (Bos taurus, UniProt P00735); assay: thrombin-catalyzed hydrolysis of tosyl-Gly-Pro-Arg-p-nitroanilide (Chromozym TH); format: biochemical; details: 4.2 x 10⁻⁶ M to 2.1 x 10⁻⁷ M peptide
T1 construct: bovine plasma thrombin, Calbiochem, Behring Diagnostics, La Jolla, CA; purchased Calbiochem, Behring Diagnostics, La Jolla, CA; host or cells: bovine plasma
Procedure: We analyzed the hirudin peptides of this invention for inhibition of thrombin-catalyzed hydrolysis of the tripeptidyl p-nitroanilide substrate tosyl-Gly-Pro-Arg-p-nitroanilide (Chromozym TH, Boehringer-Mannheim, Indianapolis, In.) spectrophotometrically at 420 nm on a Cary 219 double-beam spectrophotometer. Reactions were prepared by mixing 10 µl of thrombin solution (bovine plasma thrombin, Calbiochem, Behring Diagnostics, La Jolla, CA, 0.1 mg/ml in 0.1 M Tris-HCl, pH 7.4, 0.15 M NaCl) with 1.0 ml of 0.1 M Tris-HCl, pH 7.4, 0.15 M NaCl buffer. We then added 25 µl of substrate solution (4 mg/ml tosyl-Gly-Pro-Arg-p-nitroanilide in the above buffer) and varying amounts of hirudin₄₅₋₆₄ (as prepared in Example 4) from a 1.0 mg/ml stock solution to a final fixed volume of 1.035 ml, with final concentrations of thrombin and substrate of 2.8 x 10⁻⁸ M and 1.4 x 10⁻⁴ M, respectively.

thrombin = biological target: T2, thrombin (Homo sapiens, UniProt P00734); assay: activated partial thromboplastin time (APTT) assay of pooled normal human plasma; format: biochemical; details: result in words
T2 construct: pooled, normal human plasma (George King Biomedical, Inc., Overland Park, Kansas); tissue George King Biomedical, Inc; host or cells: pooled normal human plasma
Procedure: Anticoagulant activity was determined by assaying APTT of pooled, normal human plasma (George King Biomedical, Inc., Overland Park, Kansas) (diluted 4:1, v/v, plasma:water) with a Coag-A-Mate 2001 instrument (General Diagnostics, Inc.. Morris Plains, New Jersey). Specifically, diluted plasma was mixed with stock solutions of hirudin peptides at concentrations ranging from 750 µg/ml in water, for non-sulfated hirudin peptides, to 35 µg/ml in water for sulfated hirudin peptides. The plasma and hirudin peptides were mixed to a final volume of 125 µl prior to each APTT determination.
We began the APTT assay by adding 92 µl of a crude thromboplastin suspension (General Diagnostics) and 100 µl of 0.3 M calcium chloride reagent to each well of a Coag-A-Mate dish (General Diagnostics) per APTT determination, to a final volume of assay mixture per well of 317 µl. The calcium chloride was prepared fresh prior to each assay. Activation times were constant at 180 sec.

Row | Compound | inhibitory effect on thrombin-catalyzed hydrolysis of the artificial substrate (bovine plasma thrombin) | increase in clotting time (APTT) (thrombin) | increase in clotting time (APTT) (thrombin; listed as hirudin₅₃₋₆₂)
1 | CC[C@H](C)[C@H](NC(=O)[C@H](CCC(=O)O)NC(=O)[C@H](CCC(=O)O)NC(=O)[C@H](Cc1ccccc1)NC(=O)[C@H](CC(=O)O)NC(=O)CNC(=O)[C@H](CC(N)=O)NC(=O)[C@H](CC(N)=O)NC(=O)[C@H](Cc1c[nH]cn1)NC(=O)[C@H](CO)NC(=O)[C@H](CCC(=O)O)NC(=O)[C@@H]1CCCN1C(=O)[C@H](CC(N)=O)NC(=O)[C@@H]1CCCN1C(=O)[C@@H](N)[C@@H](C)O)C(=O)N1CCC[C@H]1C(=O)N[C@@H](CCC(=O)O)C(=O)N[C@@H](CCC(=O)O)C(=O)N[C@@H](Cc1ccc(O)cc1)C(=O)N[C@@H](CC(C)C)C(=O)O [hirudin₄₅₋₆₄] | no measurable inhibitory effect |  | 
2 | H-NGDFEEIPEE-OH [des(Tyr-Leu) hirudin₅₃₋₆₂] |  | no comparative increase in clotting time | no reasonable inhibitory activity
